Our source for the EC50 and IC50 values is patent publication US20250136578A1 (Kolm Therapeutics Inc., priority 2023, published 2025).

One experiment has as its target AR / CBP ternary complex (Homo sapiens, UniProt P10275+Q92793). Kind of experiment: Ternary complex formation assay (sandwich ELISA, AR capture, CBP antibody detection) in VCaP cell lysates. Type of experiment: cell-based. The essentials:
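VCaP cells in 5% charcoal-stripped FBS were cultured ≥3 days and then given bifunctional compound for 1.5 h. Lysates went onto AR-antibody-coated plates. Bound CBP (or p300) was detected with a rabbit antibody plus HRP anti-rabbit, using QuantaRed chemifluorescence (ex 570/em 585) read immediately, at 5 min and at 15 min.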

For a further experiment, the system named is VCaP cells. The experiment in a line: VCaP growth inhibition assay (CTG). As to conditions: Homo sapiens, 216 h, 30 pM R1881, 9 days. Type of experiment: cell-based. The essentials:
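VCaP cells in phenol red-free DMEM with 5% charcoal-stripped serum were stimulated with 30 pM R1881 (final) and treated with compound from 100 nM to 10 fM final (1:5 dilutions) for 9 days at 37 °C. Viability was read by CellTiter-Glo luminescence, and IC50 came from 4-parameter logistic fits.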

Where [1] appears, read: treated 1.5 hours, rabbit CBP or p300 antibody detection, average, read-out: Average Ternary Complex.

Molecules are shown by their SMILES. pEC50, pIC50: −log10 of the molar value. Where two headings read alike, the source gives them in different places. Bounds are passed on as bounds.

AR / CBP ternary complex, sequence (P10275 whole entry): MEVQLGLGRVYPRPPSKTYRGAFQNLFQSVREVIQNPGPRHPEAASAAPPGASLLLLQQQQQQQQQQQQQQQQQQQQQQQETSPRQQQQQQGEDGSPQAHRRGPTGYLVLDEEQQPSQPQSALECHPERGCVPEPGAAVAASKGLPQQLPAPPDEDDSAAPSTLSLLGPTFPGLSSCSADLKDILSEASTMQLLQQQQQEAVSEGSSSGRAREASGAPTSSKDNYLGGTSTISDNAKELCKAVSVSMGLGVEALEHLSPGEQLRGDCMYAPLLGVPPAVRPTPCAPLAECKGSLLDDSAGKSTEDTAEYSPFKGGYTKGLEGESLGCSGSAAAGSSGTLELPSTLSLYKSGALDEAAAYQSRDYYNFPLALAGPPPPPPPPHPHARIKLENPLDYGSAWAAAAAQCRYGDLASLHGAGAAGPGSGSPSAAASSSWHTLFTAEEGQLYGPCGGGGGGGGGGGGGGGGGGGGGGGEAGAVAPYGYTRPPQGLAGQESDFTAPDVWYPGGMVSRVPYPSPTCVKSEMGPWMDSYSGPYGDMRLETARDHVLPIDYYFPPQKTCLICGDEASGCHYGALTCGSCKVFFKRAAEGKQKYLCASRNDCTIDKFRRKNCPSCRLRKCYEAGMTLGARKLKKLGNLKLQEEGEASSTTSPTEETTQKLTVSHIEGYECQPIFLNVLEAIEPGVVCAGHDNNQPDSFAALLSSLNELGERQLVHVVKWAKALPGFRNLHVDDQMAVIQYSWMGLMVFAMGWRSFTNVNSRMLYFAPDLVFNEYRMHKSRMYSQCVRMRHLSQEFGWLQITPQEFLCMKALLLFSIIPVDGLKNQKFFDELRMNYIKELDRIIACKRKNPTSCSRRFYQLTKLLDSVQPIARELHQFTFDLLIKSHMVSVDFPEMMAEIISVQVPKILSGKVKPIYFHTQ
AR / CBP ternary complex, sequence (Q92793 2-2442): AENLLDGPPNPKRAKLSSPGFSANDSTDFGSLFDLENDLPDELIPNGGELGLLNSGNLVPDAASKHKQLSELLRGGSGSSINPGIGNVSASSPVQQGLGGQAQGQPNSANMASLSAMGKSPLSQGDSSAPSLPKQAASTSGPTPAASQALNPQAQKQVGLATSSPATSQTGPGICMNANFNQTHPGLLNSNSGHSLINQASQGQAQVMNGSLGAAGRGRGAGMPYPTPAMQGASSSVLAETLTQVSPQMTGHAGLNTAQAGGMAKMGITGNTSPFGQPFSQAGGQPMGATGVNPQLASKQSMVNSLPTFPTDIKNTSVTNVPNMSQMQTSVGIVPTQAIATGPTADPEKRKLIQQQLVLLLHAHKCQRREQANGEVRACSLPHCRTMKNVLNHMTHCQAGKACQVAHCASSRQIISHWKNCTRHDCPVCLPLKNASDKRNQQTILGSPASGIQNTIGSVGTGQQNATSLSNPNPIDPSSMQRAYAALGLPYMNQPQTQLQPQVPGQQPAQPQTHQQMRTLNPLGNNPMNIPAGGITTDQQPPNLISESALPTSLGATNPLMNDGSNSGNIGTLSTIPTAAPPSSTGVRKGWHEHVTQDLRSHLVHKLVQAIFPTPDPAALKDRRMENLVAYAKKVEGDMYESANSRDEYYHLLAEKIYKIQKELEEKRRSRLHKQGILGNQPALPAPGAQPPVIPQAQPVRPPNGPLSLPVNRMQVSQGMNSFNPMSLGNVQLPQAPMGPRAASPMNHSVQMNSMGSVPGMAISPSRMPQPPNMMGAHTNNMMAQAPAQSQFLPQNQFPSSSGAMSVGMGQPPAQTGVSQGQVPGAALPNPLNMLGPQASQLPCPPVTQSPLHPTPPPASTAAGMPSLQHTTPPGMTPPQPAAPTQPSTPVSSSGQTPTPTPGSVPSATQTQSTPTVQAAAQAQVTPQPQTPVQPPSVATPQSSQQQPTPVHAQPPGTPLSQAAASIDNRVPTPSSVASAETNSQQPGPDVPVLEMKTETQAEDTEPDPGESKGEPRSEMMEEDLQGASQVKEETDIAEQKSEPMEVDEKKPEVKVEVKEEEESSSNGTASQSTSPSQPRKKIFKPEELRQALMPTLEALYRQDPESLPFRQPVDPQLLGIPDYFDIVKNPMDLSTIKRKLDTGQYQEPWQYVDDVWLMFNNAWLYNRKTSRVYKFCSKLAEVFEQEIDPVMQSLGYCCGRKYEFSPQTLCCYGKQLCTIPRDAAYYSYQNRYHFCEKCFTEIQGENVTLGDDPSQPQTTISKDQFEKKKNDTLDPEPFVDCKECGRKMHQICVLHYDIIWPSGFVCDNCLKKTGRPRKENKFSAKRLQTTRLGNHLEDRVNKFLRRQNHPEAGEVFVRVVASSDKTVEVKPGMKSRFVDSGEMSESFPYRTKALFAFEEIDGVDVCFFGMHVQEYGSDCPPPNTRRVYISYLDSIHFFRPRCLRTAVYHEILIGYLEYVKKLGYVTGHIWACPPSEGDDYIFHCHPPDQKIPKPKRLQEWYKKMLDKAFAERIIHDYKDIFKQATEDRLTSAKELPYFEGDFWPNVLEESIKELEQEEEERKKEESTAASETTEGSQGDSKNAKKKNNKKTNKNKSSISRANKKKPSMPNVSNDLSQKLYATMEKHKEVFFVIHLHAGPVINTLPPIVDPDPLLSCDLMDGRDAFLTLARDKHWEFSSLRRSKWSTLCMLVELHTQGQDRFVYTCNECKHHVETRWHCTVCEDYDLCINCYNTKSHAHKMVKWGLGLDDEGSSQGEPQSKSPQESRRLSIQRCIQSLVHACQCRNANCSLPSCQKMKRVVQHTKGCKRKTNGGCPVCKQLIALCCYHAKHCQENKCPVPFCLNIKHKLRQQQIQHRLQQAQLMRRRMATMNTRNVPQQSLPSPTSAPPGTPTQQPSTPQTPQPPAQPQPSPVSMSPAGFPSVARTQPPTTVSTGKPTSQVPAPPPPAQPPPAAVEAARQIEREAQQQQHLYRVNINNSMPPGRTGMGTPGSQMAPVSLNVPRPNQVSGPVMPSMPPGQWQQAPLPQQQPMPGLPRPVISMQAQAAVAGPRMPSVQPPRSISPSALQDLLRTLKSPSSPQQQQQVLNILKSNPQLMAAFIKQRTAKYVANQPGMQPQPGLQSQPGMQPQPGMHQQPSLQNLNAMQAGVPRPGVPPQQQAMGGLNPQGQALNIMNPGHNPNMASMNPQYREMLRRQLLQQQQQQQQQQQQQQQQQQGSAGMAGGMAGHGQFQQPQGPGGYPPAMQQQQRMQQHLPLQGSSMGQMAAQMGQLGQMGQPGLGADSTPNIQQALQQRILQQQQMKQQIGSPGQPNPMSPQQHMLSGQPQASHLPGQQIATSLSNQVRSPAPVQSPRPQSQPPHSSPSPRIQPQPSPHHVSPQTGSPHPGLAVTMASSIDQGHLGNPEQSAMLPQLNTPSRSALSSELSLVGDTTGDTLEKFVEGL

One may read the pIC50 as the IC50 on a negative log10 scale, so that one unit is a factor of ten. On to `CC(=O)N1CCc2c(c(-c3cccc4cc(-c5ccc(CC6CCN(c7ccc(C(=O)N[C@H]8CC[C@H](Oc9ccc(C#N)c(Cl)c9)CC8)nn7)CC6)nc5)ncc34)nn2C)C1` [Compound 19, 6-[4-[[5-[8-(5-acetyl-1-methyl-6,7-dihydro-4H-pyrazolo[4,3-c]pyridin-3-yl)-3-isoquinolyl]-2-pyridyl]methyl]-1-piperidyl]-N-[4-(3-chloro-4-cyano-phenoxy)cyclohexyl]pyridazine-3-carboxamide], for which the pEC50 at AR / CBP ternary complex (setting [1]) was < 7.00. Moreover, the pIC50 in the experiment with VCaP cells was ≥ 10.00.
Taken in the same sequence, the figures for `CC(=O)N1CCc2c(c(N3CCCc4cc(-c5cnn(C)c5)c(C)cc43)nn2C2CCN(CC3CCN(c4ccc(C(=O)N[C@H]5CC[C@H](Oc6ccc(C#N)c(Cl)c6C)CC5)nn4)CC3(C)C)CC2)C1` (some centres unmarked) [Compound 291, 6-[4-[[4-[5-acetyl-3-[7-methyl-6-(1-methylpyrazol-4-yl)-3,4-dihydro-2H-quinolin-1-yl]-6,7-dihydro-4H-pyrazolo[4,3-c]pyridin-1-yl]-1-piperidyl]methyl]-3,3-dimethyl-1-piperidyl]-N-[4-(3-chloro-4-cyano-2-methyl-phenoxy)cyclohexyl]pyridazine-3-carboxamide] were > 9.00 and ≥ 10.00.
In the case of `CC(=O)N1CCc2c(c(N3CCCc4cc(-c5cnn(C)c5)c(C(F)F)cc43)nn2C2CCN(CC3CCN(c4ccc(C(=O)N[C@H]5CC[C@H](Oc6ccc(C#N)c(Cl)c6)CC5)cn4)CC3)CC2)C1` [Compound 18, 6-[4-[[4-[5-acetyl-3-[7-(difluoromethyl)-6-(1-methylpyrazol-4-yl)-3,4-dihydro-2H-quinolin-1-yl]-6,7-dihydro-4H-pyrazolo[4,3-c]pyridin-1-yl]-1-piperidyl]methyl]-1-piperidyl]-N-[4-(3-chloro-4-cyano-phenoxy)cyclohexyl]pyridine-3-carboxamide], the pEC50 on AR / CBP ternary complex (setting [1]) is > 9.00. Further, the negative logarithm of the IC50 (pIC50) with VCaP cells is ≥ 10.00.
For the compound `CC(=O)N1CCc2c(c(N3CCCc4cc(-c5cnn(C)c5)c(C(F)F)cc43)nn2C2CCN(CCC#Cc3ccc(C(=O)N[C@H]4CC[C@H](Oc5ccc(C#N)c(Cl)c5)CC4)nn3)CC2)C1` [Compound 94, 6-[4-[4-[5-acetyl-3-[7-(difluoromethyl)-6-(1-methylpyrazol-4-yl)-3,4-dihydro-2H-quinolin-1-yl]-6,7-dihydro-4H-pyrazolo[4,3-c]pyridin-1-yl]-1-piperidyl]but-1-ynyl]-N-[4-(3-chloro-4-cyano-phenoxy)cyclohexyl]pyridazine-3-carboxamide], the pEC50 on AR / CBP ternary complex (setting [1]) was 8.00 to 9.00. This compound gave a pIC50 in the experiment on VCaP cells of 9.00 to 10.00.
Regarding `CC(=O)N1CCc2c(c(-c3cccc4cc(-c5cnn(CCC6CC7(C6)CN(c6ccc(C(=O)N[C@H]8CC[C@H](Oc9ccc(C#N)c(Cl)c9)CC8)nn6)C7)c5)ncc34)nn2C)C1` [Compound 50, 6-[6-[2-[4-[8-(5-acetyl-1-methyl-6,7-dihydro-4H-pyrazolo[4,3-c]pyridin-3-yl)-3-isoquinolyl]pyrazol-1-yl]ethyl]-2-azaspiro[3.3]heptan-2-yl]-N-[4-(3-chloro-4-cyano-phenoxy)cyclohexyl]pyridazine-3-carboxamide], the pEC50 on AR / CBP ternary complex (setting [1]) was > 9.00. In addition, the pIC50 in the experiment with VCaP cells is ≥ 10.00.
Take `CC(=O)N1CCc2c(c(-c3cccc4nc(-c5cnn(CCC6CCN(c7ccc(C(=O)N[C@H]8CC[C@H](Oc9ccc(C#N)c(Cl)c9)CC8)nn7)CC6)c5)ncc34)nn2C2CCOCC2)C1` [Compound 70]: the pEC50 at AR / CBP ternary complex (setting [1]) is > 9.00. The compound further had a pIC50 in the experiment with VCaP cells of 9.00 to 10.00.
Turning to `CC(=O)N1CCc2c(c(N3CCCc4cc(-c5ccn(C)n5)c(C(F)F)cc43)nn2C2CCN(CC3CCN(c4ccc(C(=O)N[C@H]5CC[C@H](Oc6ccc(C#N)c(Cl)c6)CC5)nn4)CC3)CC2)C1` [Compound 254, 6-[4-[[4-[5-acetyl-3-[7-(difluoromethyl)-6-(1-methylpyrazol-3-yl)-3,4-dihydro-2H-quinolin-1-yl]-6,7-dihydro-4H-pyrazolo[4,3-c]pyridin-1-yl]-1-piperidyl]methyl]-1-piperidyl]-N-[4-(3-chloro-4-cyano-phenoxy)cyclohexyl]pyridazine-3-carboxamide], at AR / CBP ternary complex (setting [1]), the pEC50 was > 9.00. Also, the pIC50 in the experiment on VCaP cells is ≥ 10.00.
Taken in the same sequence, the figures for `CC(=O)N1CCc2c(c(N3CCCc4cc(C#N)ccc43)nn2C2CC3(C2)CN(C(=O)C2CC4(C2)CN(c2ccc(C(=O)N[C@H]5CC[C@H](Oc6ccc(C#N)c(Cl)c6)CC5)nn2)C4)C3)C1` (some centres unmarked) [Compound 44, 6-[6-[6-[5-acetyl-3-(6-cyano-3,4-dihydro-2H-quinolin-1-yl)-6,7-dihydro-4H-pyrazolo[4,3-c]pyridin-1-yl]-2-azaspiro [3.3]heptane-2-carbonyl]-2-azaspiro[3.3]heptan-2-yl]-N-[4-(3-chloro-4-cyano-phenoxy)cyclohexyl] pyridazine-3-carboxamide] were > 9.00 and 9.00 to 10.00.
Taken in the same sequence, the figures for `Cn1cc(-c2cc3cccc(-c4cc(C5CCN(CC6CCN(c7ccc(C(=O)N[C@H]8CC[C@H](Oc9ccc(C#N)c(Cl)c9)CC8)nn7)CC6)CC5)c5c(c4)n(C)c(=O)n5C)c3cn2)cn1` [Compound 31, N-[4-(3-chloro-4-cyano-phenoxy)cyclohexyl]-6-[4-[[4-[1,3-dimethyl-6-[3-(1-methylpyrazol-4-yl)-8-isoquinolyl]-2-oxo-benzimidazol-4-yl]-1-piperidyl]methyl]-1-piperidyl]pyridazine-3-carboxamide] were > 9.00 and ≥ 10.00.
The like results for `CO[C@H]1CN(c2ccc(C(=O)N[C@H]3CC[C@H](Oc4ccc(C#N)c(Cl)c4)CC3)nn2)CC[C@@H]1CN1CCC(n2nc(N3CCCc4cc(-c5cnn(C)c5)c(C(F)F)cc43)c3c2CCN(C(C)=O)C3)CC1` (stereo in doubt) [Compound 220, 6-[4-[[4-[5-acetyl-3-[7-(difluoromethyl)-6-(1-methylpyrazol-4-yl)-3,4-dihydro-2H-quinolin-1-yl]-6,7-dihydro-4H-pyrazolo[4,3-c]pyridin-1-yl]-1-piperidyl]methyl]-3-methoxy-1-piperidyl]-N-[4-(3-chloro-4-cyano-phenoxy)cyclohexyl]pyridazine-3-carboxamide] were, in that order, > 9.00 and ≥ 10.00.
`CC(=O)N1CCc2c(c(N3CCCc4cc(-c5cnn(C)c5)c(C)cc43)nn2C2CCN(C(=O)C3CCN(c4ccc(C(=O)N[C@H]5CC[C@H](Oc6ccc(C#N)c(Cl)c6)CC5)nn4)CC3)CC2)C1` [Compound 3, 6-[4-[4-[5-acetyl-3-[7-methyl-6-(1-methylpyrazol-4-yl)-3,4-dihydro-2H-quinolin-1-yl]-6,7-dihydro-4H-pyrazolo[4,3-c]pyridin-1-yl]piperidine-1-carbonyl]-1-piperidyl]-N-[4-(3-chloro-4-cyano-phenoxy)cyclohexyl]pyridazine-3-carboxamide]: on AR / CBP ternary complex (setting [1]), the pEC50 was > 9.00. The pIC50 in the experiment with VCaP cells is ≥ 10.00.
For the compound `CC(=O)N1CCc2c(c(N3CCCc4cc(-c5cnn(C)c5)c(C(F)F)cc43)nn2C2CC3(C2)CN(CC2CC4(C2)CN(c2ccc(C(=O)N[C@H]5CC[C@H](Oc6ccc(C#N)c(Cl)c6)CC5)nn2)C4)C3)C1` (some centres unmarked) [Compound 41, 6-[6-[[6-[5-acetyl-3-[7-(difluoromethyl)-6-(1-methylpyrazol-4-yl)-3,4-dihydro-2H-quinolin-1-yl]-6,7-dihydro-4H-pyrazolo[4,3-c]pyridin-1-yl]-2-azaspiro [3.3]heptan-2-yl]methyl]-2-azaspiro [3.3]heptan-2-yl]-N-[4-(3-chloro-4-cyano-phenoxy)cyclohexyl] pyridazine-3-carboxamide], the pEC50 on AR / CBP ternary complex (setting [1]) is > 9.00. Further, the pIC50 in the experiment with VCaP cells is ≥ 10.00.
Consider `CC(=O)N1CCc2c(c(-c3cccc4cc(-c5ccc(CCC6CC7(C6)CN(c6ccc(C(=O)N[C@H]8CC[C@H](Oc9ccc(C#N)c(Cl)c9)CC8)nn6)C7)nc5)ncc34)nn2C2CCOCC2)C1` [Compound 48], for which the pEC50 on AR / CBP ternary complex (read-out: Average Ternary Complex, treated 1.5 hours, rabbit CBP or p300 antibody detection) is > 9.00. Also, the negative-log IC50 (pIC50) with VCaP cells is ≥ 10.00.
With `CC(=O)N1CCc2c(c(-c3cccc4cc(-c5cnn(CC6CC7(C6)CN(c6ccc(C(=O)N[C@H]8CC[C@H](Oc9ccc(C#N)c(Cl)c9)CC8)nn6)C7)c5)ncc34)nn2C2CCOCC2)C1` [Compound 46, 6-[6-[[4-[8-(5-acetyl-1-tetrahydropyran-4-yl-6,7-dihydro-4H-pyrazolo[4,3-c]pyridin-3-yl)-3-isoquinolyl]pyrazol-1-yl]methyl]-2-azaspiro[3.3]heptan-2-yl]-N-[4-(3-chloro-4-cyano-phenoxy)cyclohexyl]pyridazine-3-carboxamide], the pEC50 on AR / CBP ternary complex (setting [1]) was > 9.00. For the same compound, the pIC50 in the experiment with VCaP cells is 9.00 to 10.00.
The like results for `CC(=O)N1CCc2c(c(N3CCCc4cc(-c5cnn(C)c5)c(C(F)F)cc43)nn2C2CCN(C[C@H]3[C@H](C)CN(c4ccc(C(=O)N[C@H]5CC[C@H](Oc6ccc(C#N)c(C)c6)CC5)nn4)C[C@@H]3C)CC2)C1` [Compound 289, 6-[4-[[4-[5-acetyl-3-[7-(difluoromethyl)-6-(1-methylpyrazol-4-yl)-3,4-dihydro-2H-quinolin-1-yl]-6,7-dihydro-4H-pyrazolo[4,3-c]pyridin-1-yl]-1-piperidyl]methyl]-3,5-dimethyl-1-piperidyl]-N-[4-(4-cyano-3-methyl-phenoxy)cyclohexyl]pyridazine-3-carboxamide] were, in that order, > 9.00 and ≥ 10.00.
For `CC(=O)N1CCc2c(c(N3CCCc4cc(-c5cnn(C)c5)c(C(F)F)cc43)nn2C2CCN(CC3CCN(c4ccc(C(=O)N[C@H]5CC[C@H](Oc6ccc(C#N)c(Cl)c6)CC5)nn4)CC3)CC2)C1` [Compound 16, 6-[4-[[4-[5-acetyl-3-[7-(difluoromethyl)-6-(1-methylpyrazol-4-yl)-3,4-dihydro-2H-quinolin-1-yl]-6,7-dihydro-4H-pyrazolo[4,3-c]pyridin-1-yl]-1-piperidyl]methyl]-1-piperidyl]-N-[4-(3-chloro-4-cyano-phenoxy)cyclohexyl]pyridazine-3-carboxamide], the pEC50 at AR / CBP ternary complex (setting [1]) is > 9.00. In the experiment with VCaP cells, the pIC50 was ≥ 10.00.
